Results reported in ChEMBL document CHEMBL4014333, “Discovery of Small Molecules for Repressing Cap-Independent Translation of Human Vascular Endothelial Growth Factor (hVEGF) as Novel Antitumor Agents” (J Med Chem, 2017).
Active and inactive are the calls of the source. How the calls were made is not given here. Numbered stars: 1 amine (or outer) side, 2 acyl side, 3 side chain; on linkers, the order of the positions; unused ones are H or OH. Square brackets hold non-standard residues; d marks the D form. Peptide text beside a SMILES is read from it. X1 = CN1CCC(COc2ccc3oc4c(N(CC(=O)[*:2])[*:1])c5ccccc5nc4c3c2)CC1

What was measured:
[1] = species on record: Homo sapiens; test: Binding affinity to biotin-labeled human wild type internal ribosome entry site A RNA G-quadruplex by SPR analysis
[2] = species on record: Homo sapiens; test: Binding affinity to biotin-labeled human 5'-UGAUGAGUGUGAGGAGGA-3' RNA G-quadruplex by SPR analysis
[3] = Binding affinity to biotin-labeled DNA hairpin (unknown origin) by SPR analysis

| SMILES | Activity [1] | Activity [2] | Activity [3] |
| --- | --- | --- | --- |
| C[n+]1c2ccccc2c(NCC(=O)NCC(=O)NC(Cc2c[nH]cn2)C(=O)O)c2oc3ccccc3c21 (configuration not stated) | Active |  |  |
| C[n+]1c2ccccc2c(NCCN2CCCCC2)c2oc3ccc(OCC[N+]4(C)CCOCC4)cc3c21 | Active | Active | Active |
| CCN(CC)CCNc1c2ccccc2[n+](C)c2c1oc1ccc(OCC[N+]3(C)CCOCC3)cc12 | Active | Active | Active |
| C[n+]1c2ccccc2c(NCCCN2CCOCC2)c2oc3ccc(OCC[N+](C)(C)C)cc3c21 | Active | Active | Active |
| CN(C)CCCNc1c2ccccc2[n+](C)c2c1oc1ccc(OCCC[N+](C)(C)C)cc12 | Active | Active | Active |
| C[n+]1c2ccccc2c(NCC(=O)NCC(=O)NC(CCCCN)C(=O)O)c2oc3ccccc3c21 (configuration not stated) | Active |  |  |
| C[n+]1c2ccccc2c(NCC(=O)NC(CCCNC(=N)N)C(=O)O)c2oc3ccccc3c21 (configuration not stated) | Active |  |  |
| COc1ccc2cc3[n+](cc2c1NCCCN(C)C)CCc1cc2c(cc1-3)OCO2 | Active | Active | Active |
| CCN(CC)CCCNc1c2ccccc2[n+](C)c2c1oc1ccc(OCCC[N+](C)(C)C)cc12 | Active | Active | Active |
| CN(C)CCCNc1c2ccccc2nc2c1oc1ccc(OCCN(C)C)cc12 | Active |  |  |
| C[n+]1c2ccccc2c(NCCN2CCOCC2)c2oc3ccc(OCC4CC[N+](C)(C)CC4)cc3c21 | Active | Active | Active |
| CN(C)CCCNc1c2ccccc2nc2c1oc1c(OCCN(C)C)cccc12 | Active |  |  |
| C[n+]1c2ccccc2c(NCCCN2CCOCC2)c2oc3ccc(OCCC[N+](C)(C)C)cc3c21 | Active | Active | Active |
| C[n+]1c2ccccc2c(NCCN2CCOCC2)c2oc3ccc(OCC[N+](C)(C)C)cc3c21 | Active | Active | Active |
| C[n+]1c2ccccc2c(NCC(=O)NCC(=O)NC(CCCNC(=N)N)C(=O)O)c2oc3ccccc3c21 (configuration not stated) | Active | Active | Active |
| COc1ccc2cc3[n+](cc2c1OCCCCC[n+]1ccccc1)CCc1cc2c(cc1-3)OCO2 | Active |  |  |
| CN(C)CCNc1c2ccccc2[n+](C)c2c1[nH]c1cc(F)c(F)cc12 | Active |  |  |
| CCN(CC)CCOc1ccc(Nc2nc(-c3ccccc3N)nc3ccccc23)cc1 | Active |  |  |
| C[n+]1c2ccccc2c(NCCCN2CCCCC2)c2oc3ccc(OCC(=O)NCCCN4CCCCC4)cc3c21 | Active |  |  |

| SMILES | Activity [1] | Activity [2] | Activity [3] |
| --- | --- | --- | --- |
| COc1ccc2cc3[n+](cc2c1NCCN1CCCCC1)CCc1cc2c(cc1-3)OCO2 | Active |  |  |
| COc1ccc2cc3[n+](cc2c1NCCN1CCOCC1)CCc1cc2c(cc1-3)OCO2 | Active |  |  |
| CN1CCC(COc2ccc3oc4c(NCC(=O)NCC(=O)NC(Cc5c[nH]cn5)C(=O)O)c5ccccc5nc4c3c2)CC1 (configuration not stated) | Active |  |  |
| COc1ccc2cc3[n+](cc2c1OCCC[n+]1ccc(N(C)C)cc1)CCc1cc2c(cc1-3)OCO2 | Active |  |  |
| CN1CCC(COc2ccc3oc4c(NCC(=O)NCC(=O)NC(CCCCN)C(=O)O)c5ccccc5nc4c3c2)CC1 (configuration not stated) | Active |  |  |
| COc1ccc2cc3[n+](cc2c1OCCCN)CCc1cc2c(cc1-3)OCO2 | Active |  |  |
| CN1CCC(COc2ccc3oc4c(NCC(=O)NCC(=O)NC(CCCNC(=N)N)C(=O)NC(Cc5c[nH]cn5)C(=O)O)c5ccccc5nc4c3c2)CC1 (configuration not stated) | Active |  |  |
| COc1ccc2cc3[n+](cc2c1OCCCOc1ccncc1)CCc1cc2c(cc1-3)OCO2 | Active |  |  |
| COc1ccc2cc3[n+](cc2c1OCCCn1cc[n+](C)c1)CCc1cc2c(cc1-3)OCO2 | Active |  |  |
| CN1CCC(COc2ccc3oc4c(NCC(=O)NCC(=O)NC(CCCNC(=N)N)C(=O)NC(Cc5ccccc5)C(=O)O)c5ccccc5nc4c3c2)CC1 (configuration not stated) | Active |  |  |
| C[n+]1c2ccccc2c(NCCN2CCOCC2)c2oc3ccc(OCC(=O)NCCN4CCOCC4)cc3c21 | Active |  |  |
| CN(C)CCCNc1c2ccccc2nc2c1oc1ccc(OCCCN(C)C)cc12 | Active |  |  |
| CN1CCC(COc2ccc3oc4c(NCC(=O)NC(CCCCN)C(=O)NC(CCCNC(=N)N)C(=O)O)c5ccccc5nc4c3c2)CC1 (configuration not stated) | Active |  |  |
| COc1ccc2cc3[n+](cc2c1OCCC[n+]1ccccc1)CCc1cc2c(cc1-3)OCO2 | Active |  |  |
| CN(C)CCNc1c2ccccc2nc2c1oc1ccc(OCCN(C)C)cc12 | Active |  |  |
| C[n+]1c2ccccc2c(NCCCN2CCOCC2)c2oc3ccc(OCC[N+]4(C)CCCCC4)cc3c21 | Active |  |  |
| CCN(CC)CCOc1ccc(Nc2nc(-c3ccccc3NC(=O)CCCl)nc3ccccc23)cc1 | Active |  |  |
| CN1CCC(COc2ccc3oc4c(NCC(=O)NCC(=O)NC(CCCNC(=N)N)C(=O)NC(Cc5c[nH]c6ccccc56)C(=O)O)c5ccccc5nc4c3c2)CC1 (configuration not stated) | Active |  |  |

Second part, the compound after the results:

| Activity [1] | Activity [2] | Activity [3] | SMILES |
| --- | --- | --- | --- |
| Active | Active | Active | COc1ccc2cc3[n+](cc2c1NCCCN1CCCC1)CCc1cc2c(cc1-3)OCO2 |
| Active | Active | Active | CN(C)CCCNc1c2ccccc2[n+](C)c2c1oc1ccc(OCC[N+]3(C)CCCCC3)cc12 |
| Active |  |  | COc1ccc2cc3[n+](cc2c1NCCN(C)C)CCc1cc2c(cc1-3)OCO2 |
| Active | Active | Active | CN1CCC(COc2ccc3oc4c(NCC(=O)NCC(=O)NC(CCCNC(=N)N)C(=O)NC(CO)C(=O)O)c5ccccc5nc4c3c2)CC1 (configuration not stated) |
| Active |  |  | CN1CCC(COc2ccc3oc4c(NCC(=O)NC(Cc5c[nH]cn5)C(=O)NC(CCCNC(=N)N)C(=O)O)c5ccccc5nc4c3c2)CC1 (configuration not stated) |
| Active | Active | Active | CN(C)CCNc1c2ccccc2[n+](C)c2c1oc1ccc(OCC[N+](C)(C)C)cc12 |
| Active | Active | Active | CCN(CC)CCCNc1c2ccccc2[n+](C)c2c1oc1ccc(OCC[N+](C)(C)C)cc12 |
| Active |  |  | CN(C)CCCNc1c2ccccc2[n+](C)c2c1[nH]c1ccccc12 |
| Active |  |  | COc1ccc2cc3[n+](cc2c1OCCCn1ccc(N)nc1=O)CCc1cc2c(cc1-3)OCO2 |
| Active |  |  | CN(C)CCCNc1c2ccccc2nc2c1oc1ccc(OCC3CCN(C)CC3)cc12 |
| Active | Active | Active | CN1CCC(COc2ccc3oc4c(NCC(=O)NCC(=O)NC(CCCNC(=N)N)C(=O)NC(CC(=O)O)C(=O)O)c5ccccc5nc4c3c2)CC1 (configuration not stated) |
| Active | Active | Active | C[n+]1c2ccccc2c(NCCCN2CCOCC2)c2oc3ccc(OCC[N+]4(C)CCOCC4)cc3c21 |
| Active | Active | Active | CCN(CC)CCNc1c2ccccc2[n+](C)c2c1oc1ccc(OCCC[N+](C)(C)C)cc12 |
| Active |  |  | COc1ccc2cc3[n+](cc2c1NCCO)CCc1cc2c(cc1-3)OCO2 |
| Active |  |  | COc1ccc2cc3[n+](cc2c1OCCC[n+]1cccc(C)c1)CCc1cc2c(cc1-3)OCO2 |
| Active |  |  | CN(C)CCCNc1c2ccccc2nc2c1oc1cc(OCCN(C)C)ccc12 |
| Active |  |  | CC(NC(=O)C(CCCNC(=N)N)NC(=O)CNC(=O)CNc1c2ccccc2nc2c1oc1ccc(OCC3CCN(C)CC3)cc12)C(=O)O (configuration not stated) |

| Activity [1] | Activity [2] | Activity [3] | SMILES |
| --- | --- | --- | --- |
| Active |  |  | CN1CCC(COc2ccc3oc4c(NCC(=O)NCC(=O)NC(CCCNC(=N)N)C(=O)NC(Cc5c[nH]cn5)C(=O)NCC(=O)O)c5ccccc5nc4c3c2)CC1 (configuration not stated) (H-[X1]GRHG-OH; configuration not given here) |
| Active |  |  | C[n+]1c2ccccc2c(NCCCN2CCOCC2)c2oc3ccc(OCC(=O)NCCN4CCOCC4)cc3c21 |
| Active |  |  | CN1CCC(COc2ccc3oc4c(NCC(=O)NCC(=O)NCC(=O)O)c5ccccc5nc4c3c2)CC1 |
| Active |  |  | CN1CCC(COc2ccc3oc4c(NCC(=O)NCC(=O)NC(CCCNC(=N)N)C(=O)NC(CCC(=O)O)C(=O)O)c5ccccc5nc4c3c2)CC1 (configuration not stated) |
| Active |  |  | CN1CCC(COc2ccc3oc4c(NCC(=O)NCC(=O)NC(CCCNC(=N)N)C(=O)O)c5ccccc5nc4c3c2)CC1 (configuration not stated) |
| Active |  |  | COc1ccc2cc3[n+](cc2c1OCCCCCC[n+]1ccccc1)CCc1cc2c(cc1-3)OCO2 |
| Active |  |  | C[n+]1c2ccccc2c(NCC(=O)NC(CCCCN)C(=O)NC(CCCNC(=N)N)C(=O)O)c2oc3ccccc3c21 (configuration not stated) |
| Active |  |  | O=C1/C(=C\c2ccc(N3CCOCC3)cc2)CC/C1=C\c1cccnc1 |
| Active |  |  | CN1CCC(COc2ccc3oc4c(NCC(=O)NCC(=O)NC(CCCNC(=N)N)C(=O)NC(Cc5ccc(O)cc5)C(=O)O)c5ccccc5nc4c3c2)CC1 (configuration not stated) |
| Active |  |  | COc1ccc2cc3[n+](cc2c1NCCCCCCN)CCc1cc2c(cc1-3)OCO2 |
| Active |  |  | COc1ccc2cc3[n+](cc2c1OCCN)CCc1cc2c(cc1-3)OCO2 |
| Active |  |  | COc1ccc2cc3[n+](cc2c1OCCC[n+]1cccc(F)c1)CCc1cc2c(cc1-3)OCO2 |
| Active |  |  | CN(C)CCCCOc1cccc2c1oc1c(NCCCN(C)C)c3ccccc3nc12 |
| Active |  |  | C[n+]1c2ccccc2c(NCC(=O)NC(Cc2ccccc2)C(=O)NC(CCCNC(=N)N)C(=O)O)c2oc3ccccc3c21 (configuration not stated) |
| Active |  |  | CN1CCC(COc2ccc3oc4c(NCC(=O)NCC(=O)NC(CCCNC(=N)N)C(=O)NC(CCC(N)=O)C(=O)O)c5ccccc5nc4c3c2)CC1 (configuration not stated) |
| Active |  |  | CN(C)CCNC(=O)COc1ccc2oc3c(NCCN(C)C)c4ccccc4[n+](C)c3c2c1 |
| Active |  |  | C[n+]1c2ccccc2c(NCCO)c2[nH]c3ccccc3c21 |
